Results: the CheMixHub ionic liquid set

Experiment: xn = mol fraction of the nth substance listed
Conditions: 100 kPa

CCC(=O)[O-].C[N+](C)(C)CCO + CCCO + O
x1 = 0.00408, x2 = 0.5431
Conditions	viscosity [mPa·s]
288.15 K	3.537
298.15 K	2.571
308.15 K	1.931

CCCC[n+]1ccn(C)c1.[Br-] + CCCOCCO
viscosity [mPa·s]
Conditions	x1 = 0.1001	x1 = 0.2003	x1 = 0.2994	x1 = 0.4	x1 = 0.5002	x1 = 0.6002	x1 = 0.701	x1 = 0.7969	x1 = 0.9003	x1 = 1
298.15 K	15.5	50	100	152	204	270	378	560	910	1451
303.15 K	10.3	28.9	53.7	81.1	110	148	206	305	503	837
308.15 K	7.54	19.1	35.1	52	69.9	92.1	126	180	293	506
313.15 K	6	14.5	25.9	37	48.8	61.7	81.8	114	184	330
